BigSolDB 2.1

O=C1NC(=O)C2C3C=CC(C3)C12 (stereo not drawn)
solubility (mole fraction)
Conditions | 278.15 K | 283.15 K | 288.15 K | 293.15 K | 298.15 K | 303.15 K | 308.15 K | 313.15 K | 318.15 K | 323.15 K
in 1,4-dioxane | – | – | 0.0363 | 0.0402 | 0.0495 | 0.0576 | 0.0649 | 0.0738 | 0.0843 | 0.0962
in 2-ethoxyethanol | 0.019 | 0.0224 | 0.0255 | 0.0295 | 0.0336 | 0.0384 | 0.0442 | 0.0481 | 0.0551 | 0.0627
in DMF | 0.0637 | 0.0717 | 0.081 | 0.0915 | 0.107 | 0.116 | 0.129 | 0.145 | 0.159 | 0.177
in acetone | 0.0128 | 0.0146 | 0.0171 | 0.0196 | 0.0225 | 0.0255 | 0.029 | 0.0328 | 0.0369 | 0.0414
in ethanol | 0.00441 | 0.00512 | 0.00642 | 0.00789 | 0.00949 | 0.0115 | 0.0138 | 0.0165 | 0.0195 | 0.0233
in ethyl acetate | 0.00821 | 0.00971 | 0.0112 | 0.0128 | 0.0146 | 0.0171 | 0.0195 | 0.0223 | 0.0255 | 0.029
in isopropyl acetate | 0.0046 | 0.00565 | 0.00672 | 0.00781 | 0.00903 | 0.0105 | 0.0124 | 0.0143 | 0.0164 | 0.019
in methanol | 0.00626 | 0.00766 | 0.00855 | 0.0104 | 0.0127 | 0.0157 | 0.0182 | 0.0219 | 0.026 | 0.0308
in methyl acetate | 0.0113 | 0.0135 | 0.0159 | 0.0187 | 0.0223 | 0.0259 | 0.0303 | 0.0352 | 0.041 | 0.0474
in n-butyl acetate | 0.00431 | 0.00523 | 0.00617 | 0.00718 | 0.00869 | 0.0103 | 0.0117 | 0.0135 | 0.0156 | 0.0178
in n-propyl acetate | 0.00537 | 0.00631 | 0.00782 | 0.00907 | 0.0106 | 0.0124 | 0.0145 | 0.0168 | 0.0193 | 0.0221
